Assays:
[1] = system: DSS-Induced inflammatory Bowel Disease Models in Mice; test: DSS-induced inflammatory bowel disease model in mice (Biological Example 4, 1.3% DSS); format: in vivo, C57BL/6 mice; conditions: 30 mg/Kg i.g. Q.D; for Average Length of Colon (Mean ± SD) / Inhibitory Rate of Colonic Reduction: 1.3% DSS days 0-5
Procedure: 40 healthy female C57BL/6 mice having weight of 16-19 g were randomly divided into 4 groups in accordance with weight. There were 10 mice in each group (see Table 6 below). The first day of the experiment was recorded as Day 0. The administration regimen and induction regimen were detailed in Table 6. The change in weight of experimental animals was recorded every day. […] Samples of animal colonic tissues were obtained to measure the length. One-way ANOVA analysis of mice weights was performed by SPSS22. Statistical analyses between groups were performed. Mann-Whitney U non-parametric test was performed on the length of colon.
The experimental method used in the present biological example is identical to those in Biological Example 3.
Calculation Formula of Inhibitory Rate of Colonic Reduction: (Length of Colon in Administration Group−Length of Colon in Model Group)/(Length of Colon in Blank Group−Length of Colon in Model Group)

ICR mice = test: Acute toxicity experiment of single oral administration in mice; format: in vivo; conditions: 1000 mg/Kg single oral dose
Procedure: The mice were fasted one day before the experiment. On the day of the experiment, 6 mice (ICR mice, body weight of 19-21 g, three females and three males) were selected in each experiment group. First of all, one female and one male were selected to orally give 1000 mg/Kg, and observed for 5-10 minutes. If there were no obvious side effects, the remaining 4 animals were orally given the same dose, and observed for 10-15 minutes. If no animal died, the animals were placed in a box to balancedly feed for 7 days. The state was observed and the body weight was recorded daily.
Observation Indexes within 0-15 Minutes After Administration
Activity: restlessness, hyperactivity
Nervous system response: tremor, spasm, convulsion, ataxia, posture abnormality, etc.
Autonomic nerve: exophthalmos, salivation, tears, urination (hematuria), diarrhea, piloerection, breathing, etc.
Observation Indexes Over 7 Days
State of Animal: lethargy, hyperactivity, excitement, hair loss, diarrhea, abnormal behavior, death, etc.

SMILES	Average Length of Colon (Mean ± SD) [1]	Inhibitory Rate of Colonic Reduction [1]	Weights of Experimental Mice (Mean ± SD) ([1]; Day 0)	Weights of Experimental Mice (Mean ± SD) ([1]; Day 1)	Weights of Experimental Mice (Mean ± SD) ([1]; Day 2)	Weights of Experimental Mice (Mean ± SD) ([1]; Day 3)	Weights of Experimental Mice (Mean ± SD) ([1]; Day 4)	Weights of Experimental Mice (Mean ± SD) ([1]; Day 5)	Weights of Experimental Mice (Mean ± SD) ([1]; Day 6)	Weights of Experimental Mice (Mean ± SD) ([1]; Day 7)	Weights of Experimental Mice (Mean ± SD) ([1]; Day 8)	Weights of Experimental Mice (Mean ± SD) ([1]; Day 9)	also measured
Nc1cccc2c1C(=O)N(C1CCC(=O)N(CCO)C1=O)C2=O (stereo not shown) [Example 6, 4-amino-2-(1-(2-hydroxyethyl)-2,6-dioxopiperidin-3-yl)isoindolin-1,3-dione]	6.9 ± 0.3 cm	66.7%	19.8 ± 0.6 g	19.9 ± 0.7 g	19.7 ± 0.7 g	20.0 ± 0.6 g	20.0 ± 0.6 g	19.9 ± 0.7 g	19.5 ± 0.6 g	19.4 ± 0.8 g	19.5 ± 0.7 g	19.6 ± 1.1 g	Daily Body Weight of Tested Female Mice (Mean ± SD) (ICR mice; Day 1): 17.5 ± 0.9 g; Daily Body Weight of Tested Male Mice (Mean ± SD) (ICR mice; Day 1): 18.4 ± 0.6 g; Daily Body Weight of Tested Female Mice (Mean ± SD) (ICR mice; Day 2): 21.5 ± 0.9 g; Daily Body Weight of Tested Male Mice (Mean ± SD) (ICR mice; Day 2): 21.5 ± 0.9 g; Daily Body Weight of Tested Female Mice (Mean ± SD) (ICR mice; Day 3): 21.6 ± 1.3 g; Daily Body Weight of Tested Male Mice (Mean ± SD) (ICR mice; Day 3): 21.6 ± 1.3 g; Daily Body Weight of Tested Female Mice (Mean ± SD) (ICR mice; Day 4): 22.0 ± 1.2 g; Daily Body Weight of Tested Male Mice (Mean ± SD) (ICR mice; Day 4): 25.5 ± 0.5 g; Daily Body Weight of Tested Female Mice (Mean ± SD) (ICR mice; Day 5): 22.3 ± 1.9 g; Daily Body Weight of Tested Male Mice (Mean ± SD) (ICR mice; Day 5): 25.9 ± 0.9 g; Daily Body Weight of Tested Female Mice (Mean ± SD) (ICR mice; Day 6): 22.4 ± 2.3 g; Daily Body Weight of Tested Male Mice (Mean ± SD) (ICR mice; Day 6): 26.9 ± 1.1 g; Daily Body Weight of Tested Female Mice (Mean ± SD) (ICR mice; Day 7): 22.9 ± 2.0 g; Daily Body Weight of Tested Male Mice (Mean ± SD) (ICR mice; Day 7): 27.1 ± 1.1 g; Summary of toxic response of tested animals in 7 Days (ICR mice; Female): Abnormality was not observed in 7 days of the test; Summary of toxic response of tested animals in 7 Days (ICR mice; Male): Abnormality was not observed in 7 days of the test
COCCCN1C(=O)CCC(N2C(=O)c3cccc(NC(C)=O)c3C2=O)C1=O (stereo not shown) [Example 16, 4-acetylamino-2-(1-(3-methoxypropyl)-2,6-dioxopiperidin-3-yl)isoindolin-1,3-dione]	7.0 ± 0.4 cm	73.3%	19.8 ± 0.6 g	19.9 ± 0.4 g	19.7 ± 0.4 g	19.9 ± 0.6 g	19.7 ± 0.5 g	19.6 ± 0.5 g	19.3 ± 0.7 g	19.0 ± 1.0 g	18.9 ± 1.2 g	18.9 ± 1.1 g	–

From patent US11873287B2, “Piperidine-2,6-dione derivatives and ulcerative colitis treating” (TIANJIN HEMAY PHARMACEUTICAL SCI-TECH CO., LTD, priority 2016, dated 2024)
